These results are taken from PubChem BioAssay (NCI).

SMILES strings stand for the structures.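 These data come from cells grown in 96-well plates and exposed to compound for 48 hours at five concentrations. GI50 = concentration required for 50% inhibition of growth. TGI is the concentration that stops growth completely.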

What all share (assay): NCI-60 cell line screen, 48 h
For test [1], the system named is CAKI-1 renal.
For test [2], the system named is CCRF-CEM leukemia.
For test [3], the system named is COLO 205 colon.
Test [4] relates to EKVX NSCLC.
The test system of test [5] is HOP-62 NSCLC.
Test [6] concerns K-562 leukemia.
In test [7] the test system is M14 melanoma.
For test [8], the system named is NCI-H226 lung.
In test [9] the test system is NCI-H460 lung.
Test [10] has as its system OVCAR-4 ovarian.

As to `C=C[C@]1(C)C=C2C(=O)[C@@]3(O)OC[C@@]4(CCCC(C)(C)C43O)C2(O)C(O)C1` (stereo not given in full), the GI50 is 2380 nM in [1]; 1830 nM in test [2]; 1.54 µM in test [3]; 15 µM in [4]; 11.4 µM in test [5]; 2.8 µM in [6]. Also, the GI50 in test [7] is 1.55 µM; in test [8], 5.43 µM; in test [9] it was 12.5 µM; in [10], 2.32 µM. Also, the TGI in test [1] is 7.71 µM; in test [2] it was 16.5 µM; in [3], 3.08 µM; in [4] it was 31.3 µM; in [5], 24.7 µM; in test [6] it was greater than 27.9 µM. For the same molecule, the TGI came to 3.01 µM in test [7], 12.1 µM in test [8], 28.2 µM in [9] and 5.47 µM in [10].

Regarding `CCOC(=O)/C(C#N)=C1\N[C@H](C(=O)OCC)CO1`, the TGI in [1], in test [2], in test [3], in [4], in test [5] and in test [6] was greater than 100 µM in each case. The TGI in [7], in [8], in test [9] and in test [10] was greater than 100 µM in each case.

Consider `COc1ccc2c(c1)C(=O)c1c-2n(CCCN2CCOCC2)c(=O)c2ccccc12`, for which the GI50 in test [1] is 1790 nM; in test [2], 1190 nM; in test [3], 2.81 µM; in test [4] it was 4.52 µM; in [5], 1.7 µM; in test [6] it was 4.47 µM. The GI50 in test [7] was 2.85 µM; in test [8], 2.59 µM; in [9], 0.561 µM; in test [10] it was 4.57 µM. Further, the TGI in test [1] is 8.07 µM; in test [2], greater than 20.7 µM; in test [3] it was greater than 41 µM; in [4], greater than 89.2 µM; in [5], 6.16 µM; in test [6], greater than 100 µM. In addition, the TGI in [7] was 7.87 µM; in test [8] it was 7.57 µM; in [9] it was 3.58 µM; in test [10] it was greater than 100 µM.

With `O=C(O)c1c[nH]cc1C(=O)O`, the TGI in test [1], in [2], in test [3], in [4], in test [5] and in test [6] was greater than 100 µM in each case. Also, the TGI in [7], in test [8], in test [9] and in test [10] was greater than 100 µM throughout.

On to `CC(=O)Oc1ccccc1C(=O)C1c2cccc(O)c2C(=O)c2c(O)cccc21`, for which the TGI is 5.39 µM in test [1]; 2.77 µM in test [2]; 1.86 µM in test [3]; 6.15 µM in test [4]; 3.4 µM in test [5]; greater than 100 µM in test [6]. In addition, the TGI came to 5.16 µM in [7], 3.7 µM in test [8], 2.1 µM in test [9] and 4.48 µM in [10].

For `CCOC(=O)c1c(C)n(Cc2ccc(Cl)cc2Cl)c2c1cc1oc(=O)c(=O)n3c(Cc4ccccc4)nc2c13`, the GI50 in [1] was 2690 nM; in test [2] it was 1310 nM; in test [3], 4.65 µM; in [4] it was 8.05 µM; in test [5], 5.37 µM; in [6] it was 3.13 µM. For the same molecule, the GI50 is 13 µM in [7], 10.7 µM in test [8], 2.68 µM in test [9] and 4.45 µM in test [10]. Moreover, the TGI in test [1] is 9.36 µM; in test [2] it was 3.19 µM; in [3] it was 25.3 µM; in [4], 20.8 µM; in [5], 18.3 µM; in test [6], 7.18 µM. Moreover, the TGI in test [7] came out at 36.7 µM; in test [8], 25 µM; in [9], 7.06 µM; in [10], 16.4 µM.

For the molecule `COc1cc2cc(Oc3ccc(NC(=O)c4ccc(Cl)c(C(F)(F)F)c4)cc3)c(C)nc2cc1OC`, the GI50 in test [1] is 4190 nM; in test [2], 7560 nM; in test [3] it was 11.2 µM; in [4], 5.76 µM; in [5], 42.6 µM; in test [6] it was 9.14 µM. Besides, the GI50 in test [7] was 9.55 µM; in [8] it was 19.6 µM; in test [9], 11.5 µM; in test [10] it was 5.58 µM. Moreover, the TGI in test [1] is 46.2 µM; in test [2], greater than 100 µM; in test [3], 24 µM; in test [4] it was 83.3 µM; in [5], greater than 100 µM; in test [6], greater than 100 µM. The TGI in test [7], in test [8], in [9] and in test [10] was greater than 100 µM throughout.

For `COc1ccc(-c2ccc(/C=N/n3c(COc4ccc(Cl)cc4)n[nH]c3=S)o2)c([N+](=O)[O-])c1`, the GI50 was 3960 nM in test [1]; 17500 nM in test [2]; 20.1 µM in test [3]; 12.4 µM in test [4]; 22.6 µM in test [5]; 11.6 µM in test [6]. For the same molecule, the GI50 in [7] is 32.7 µM; in test [8], 13.5 µM; in test [9], 13 µM; in [10], 2.87 µM. The TGI in [1] worked out at 22.2 µM; in test [2], 52 µM; in test [3] it was 45.2 µM; in [4] it was 54.1 µM; in [5], 40.4 µM; in test [6], 53.4 µM. For the same molecule, the TGI in test [7] was greater than 100 µM; in test [8] it was 57.8 µM; in [9], 32.8 µM; in test [10] it was 18.2 µM.

Consider `CC(C)(Br)C(=O)/C=C/c1ccccc1`, for which the TGI in test [1] is 17.3 µM; in [2], 1.63 µM; in [3], 22 µM; in test [4], 23 µM; in test [5], 15.6 µM; in test [6], greater than 100 µM. The TGI in [7] is 4.88 µM; in test [8] it was 24 µM; in [9] it was 63.4 µM; in test [10], 5.58 µM.
